Laboratory results as given in patent publication US6284910A, “Farnesyl pyrophosphate analogs” (University of Kentucky Research Foundation, priority 1999, dated 2001).
“Also recorded” adds a separate entry of the source.

Legend:
[1] = system: Xenopus laevis oocytes; assay: Xenopus laevis oocyte maturation assay (GVBD) with oncogenic H-Ras in mevinolin-treated oocytes; format: cell-based; conditions: 50 μM mevinolin, overnight
Source text: Recently, a novel methodology involving the microinjection of known amounts of Ras into Xenopus oocytes has been described (see references 24, 45, infra), thereby permitting a quantitative structure-function analysis of H-Ras farnesyl-group for signal transduction in vivo. The approach makes use of enzymatic methods to attach structurally related farnesyl analogs onto the prenylation site of H-Ras combined with microinjection procedures to study their in vivo function. Oocytes are naturally arrested at the G2-M boundary of the first meiotic cell division. (See reference 80, infra). When microinjected with oncogenic H-Ras, oocytes reenter the cell cycle, which is monitored by germinal vesicle breakdown (GVBD) by the appearance of a white spot in the animal hemisphere. GVBD is accompanied by activation of the mitogen-activated protein kinase (MAPK) cascade. (See 81, 82, infra). […] (See references 24, 45, infra). These biochemical effects are strictly dependent on in vivo farnesylation of the injected H-Ras protein since mutation of the CaaX prenylation motif, blocking isoprenoid biosynthesis, and inhibition of FTase in oocytes all suppress these activities. (See references 83-85, infra). Thus, the system provides a method to study the in vivo role of prenylation by analyzing the ability of FPP analogues to rescue H-Ras biological functions in isoprenoid-depleted oocytes. […] Oocytes were isolated from X. laevis females and allowed to recover overnight. (See 24, 45, infra).

[2] = target: T1, FTase (Rattus norvegicus, UniProt Q02293+Q04631); assay: Inhibition of FTase-catalyzed transfer of [^3 H]AGPP to p21^H-ras; format: biochemical; parameters: H-Ras is only the protein substrate; conditions: non-radiolabeled compound, time and concentration dependent transfer
Procedure: (§1) Assay for Farnesyltransferase Activity--Farnesyltransferase activity was assayed by measuring the amount of [^3 H]farnesyl or [^3 H]anilinogeranyl transferred from [^3 H]FPP or [^3 H]AGPP to recombinant p21^H-ras, as described previously (31). Unless otherwise stated, each reaction mixture contained the following components in a final volume of 25 μl: 50 mM Tris (pH 7.4), 20 mM KCl, 0.2% octyl β-glucopyranoside, 1 mM dithiothreitol, 10-20 ng recombinant FTase, 5 μM p21^Ha-ras, 3 mM MgCl2, 50 μM ZnCl2, and 0.6 μM [^3 H]FPP (33,000 dpm/pmol; American Radiochemical Co.) or 0.1-5 μM [^3 H]AGPP (37,400 dpm/pmol). Following incubation for the indicated times at 37° C., the amount of [^3 H]prenyl transferred was measured by ethanol-HCl precipitation and filtration on glass fiber filters with modification as previously described (19). A blank value was determined in parallel incubation mixtures containing no enzyme. This blank value was subtracted from each reaction before calculating pmol [^3 H]prenyl transferred.
(§2) The observed inhibition kinetics could be a manifestation of the ability of AGPP to act as an alternative substrate for FTase. To evaluate the potential of AGPP to serve as a substrate of FTase, [^3 H]-AGPP was prepared by a similar route as described above, incorporating tritium with a specific activity of 17 Ci/mmol (synthesis to be reported elsewhere). […] The incorporated radioactivity was detected as a band of the expected molecular weight of farnesylated p21^H-ras on SDS-polyacrylamide gels (FIG. 4A, inset). […] The concentration of [^3 H]AGPP that gave half-maximal reaction velocity was approximately 0.5 μM (FIG. 4B).

[3] = target: T1, FTase; assay: Continuous fluorescence assay: transfer of FPP and analogs to N-dansyl-GCVLS by FTase; format: biochemical; conditions: excitation 340 nm, 505 nm
Source text: FIG. 8. Progress Curves for Transfer of FPP and Analog Pyrophosphates to Dansyl-GCVLS by FTase. The reaction is monitored for fluorescence intensity at 505 nm with excitation at 340 nm. (a) FPP, (b) AGPP, (c) 8-(pentafluoroaniline)geranyl pyrophosphate, (d) blank.
Continuous Fluorescence Assay for Analog Transfer: An important requirement for these studies is the development of a rapid technique for evaluating whether FPP analogs that are efficiently and appropriately transferred to target substrates by FTase. The analogs were evaluated for their ability to be transferred by FTase to the pentapeptide N-dansyl-GCVLS in a continuous fluorescence assay. (See references 78, 79, infra). There is a time dependent increase in the fluorescence of the dansyl group due to the local increase in hydrophobicity as the adjacent cysteine residue is isoprenylated. […] (FIG. 8).

[4] = target: T2, recombinant rat brain FTase (Rattus norvegicus, UniProt Q02293+Q04631); assay: Inhibition of FTase-catalyzed transfer of [^3 H]farnesyl from [^3 H]FPP to H-Ras; format: biochemical; conditions: concentrations as high as 250 μM
T2 construct: 6xHis (N); made in house; host or cells: Sf9 insect cells (baculovirus)
Procedure: FIG. 2. Differential Inhibition of Farnesyltransferase and CAAX Geranylgeranyltransferase by AGPP. The assay mixtures contained (in a final volume of 25 μl) various components as described in "Experimental Procedures". After incubation for 15 min at 37° C., the amount of [^3 H]prenyl group transferred to the appropriate protein substrate [H-Ras (CVLS) for FTase and H-Ras (CVLL) for CAAX GGTase] was measured by precipitation with ethanol-HCl. The assays contained 10 ng recombinant rat FTase, 5 μM H-Ras, and 0.6 μM [^3 H]FPP (33,000 dpm/pmol) or 100 ng recombinant rat CAAX GGTase, 5 μM H-Ras CVLL, and 1 μM [^3 H]GGPP (33,000 dpm/pmol) and the indicated concentration of unlabeled AGPP. The 100% of control values were 1.1 and 5.5 pmol of [^3 H]farnesyl or [^3 H]geranylgeranyl transferred per tube. Each value is the average of duplicate incubations and is representative of two separate experiments.
FIG. 3. Inhibition of Farnesyltransferase by AGPP and I-AGPP. The enzymatic activity was measured in the presence of the various concentrations of either AGPP or I-AGPP as described in […]. The 100% control values were 1.9 and 2 pmol. Each value is the average of duplicate incubations and is representative of three separate experiments.
as §1
Inhibition of Farnesyltransferase by AGPP--AGPP was tested for its ability to inhibit recombinant rat brain FTase activity in vitro. AGPP inhibited FTase in a concentration dependent manner with an IC50 value of 0.6 μM (FIG. 2).
Kinetic analyses were carried out to investigate the mechanism of FTase inhibition by AGPP. […] The same Km value was observed when the Lineweaver-Burke plot was analyzed under different Ras and AGPP concentrations in the presence of a constant concentration of FPP. […] AGPP inhibition is reversible, since transfer of [^3 H]-FPP by FTase to Ras was restored by isolating the farnesyltransferase by gel filtration chromatography after preincubation in the presence of 50 μM AGPP (data not shown).
The assays contained 10 ng recombinant rat FTase, 5 μM H-Ras, and 0.6 μM [^3 H]FPP (33,000 dpm/pmol) or 100 ng recombinant rat CAAX GGTase, 5 μM H-Ras CVLL, and 1 μM [^3 H]GGPP (33,000 dpm/pmol) and the indicated concentration of unlabeled AGPP. The 100% of control values were 1.1 and 5.5 pmol of [^3 H]farnesyl or [^3 H]geranylgeranyl transferred per tube.

[5] = target: T1, FTase; assay: FTase-catalyzed transfer of labeled FPP analogs to p21^H-ras (substrate assay); format: biochemical; parameters: H-Ras is only the protein substrate; conditions: in vitro, 37° C.
Procedure: FIG. 4. Transfer of Anilinogeranyl from [^3 H]AGPP to p21^Ha-ras by Farnesyltransferase. (A) Each reaction contained 1 μM [^3 H]AGPP (37,400 dpm/pmol) and 10 ng of recombinant FTase in the absence (triangles) or presence (circles) of 5 μM p21^Ha-ras Duplicate samples were incubated for the indicated times at 37° C., and ethanol-HCl precipitated radioactivity was measures as described under "Experimental Procedures". […] The gel was treated with Amplify solution (Amersham), dried, and exposed to Kodak X-OMAT AR film for 2 days at -70° C. The migration of molecular weight markers placed in a adjacent lane is shown. (B) The AGPP substrate saturation curve for FTase was determined by varying the amount of [^3 H]AGPP in the standard reaction described above. Assays were carried out in duplicate for 30 min at 37° C., and the ethanol-HCl precipitable radioactivity measured. The data is representative of three independent experiments.
FIG. 5. […] Farnesyltransferase (10 ng) was incubated in a final volume of 25 μl in the presence of 1.0 μM [^3 H]AGPP or [^3 H]FPP and 5 μM wild-type p21^Ha-ras. After incubation for 30 min at 37° C., the amount of [^3 H]prenyl transferred to p21^Ha-ras was determined as described under "Experimental Procedures". Each value is the average of duplicate incubations and is representative of five separate experiments.
as §1, §2
FIG. 5 depicts transfer of unnatural anilinogeranyl lipid from [^3 H]AGPP and transfer of farnesyl lipid from [^3 H]FPP to H-Ras by FTase. Farnesyltransferase (10 ng) was incubated in a final volume of 25 μl in the presence of 1.0 μM [^3 H]AGPP or [^3 H]FPP and 5 μM wild-type H-Ras. After incubation for 30 min. at 37° C., the amount of [^3 H]prenyl transferred to H-Ras was determined by ethanol-HCl precipitation and scintillation counting. Each value is the average of duplicate incubations and is representative of five separate experiments.

## CC[C@H](C)C(=O)O[C@H]1C[C@@H](C)C=C2C=C[C@H](C)[C@H](CC[C@@H]3C[C@@H](O)CC(=O)O3)[C@H]21 [mevinolin, reference compound]
[1]
  depletion of endogenous FPP pool: effectively depletes the endogenous pool of FPP

## CC(C)=CCCC(C)=CCCC(C)=CCO [farnesol, reference compound]
[2]
  inhibition of transfer of [^3 H]AGPP to p21^H-ras, in words: not AG-OH or farnesol were found to inhibit

## C/C(=C\COP(=O)(O)OP(=O)(O)O)CC/C=C(\C)CNc1c(F)c(F)c(F)c(F)c1F [analog 4, 8-pentafluoroaniline-3,7-dimethyl-2,6-octadiene pyrophosphate]
[3]
  time-dependent increase in dansyl fluorescence / transfer to dansyl peptide, in words: Time-dependent increases in the fluorescence of the dansyl group; also recorded: does not change the apparent kinetics of transfer

## C/C(=C\CO)CC/C=C(\C)CNc1ccccc1 [AG-OH, (E,E)-8-Aniline-3,7-dimethyl-2,6-octadien-1-ol]
[4]
  inhibition of FTase by anilinogeranyl alcohol, in words: did not significantly inhibit
[2]
  inhibition of transfer of [^3 H]AGPP to p21^H-ras, in words: not AG-OH or farnesol were found to inhibit

## C/C(=C\COP(=O)(O)OP(=O)(O)O)CC/C=C(\C)CNc1c(F)c(F)c(N=[N+]=[N-])c(F)c1F [analog 5, 8-(4-azido-2,3,5,6-tetrafluoroaniline)-3,7-dimethyl-2,6-octadiene pyrophosphate]
[3]
  time-dependent increase in dansyl fluorescence / transfer to dansyl peptide, in words: no increase in fluorescence, and are not transferred

## C/C(=C\COP(=O)(O)OP(=O)(O)O)CC/C=C(\C)CNc1ccc(I)cc1 [I-AGPP, 8-(4-iodoaniline)-3,7-dimethyl-2,6-octadiene pyrophosphate]
[5]
  transfer to p21^H-ras by FTase, in words: efficient transfer of I-AGPP by FTase to H-Ras
[5]; listed as 125 I-AGPP
  transfer to p21^H-ras by FTase, in words: time and substrate dependent manner similar to [^3 H]AGPP

## C/C(=C\COP(=O)(O)OP(=O)(O)O)CC/C=C(\C)CNc1ccc([N+](=O)[O-])cc1 [analog 2, 8-(4-nitroaniline)-3,7-dimethyl-2,6-octadiene pyrophosphate]
[3]
  time-dependent increase in dansyl fluorescence / transfer to dansyl peptide, in words: Time-dependent increases in the fluorescence of the dansyl group

## CCN(C/C(C)=C/CC/C(C)=C/COP(=O)(O)OP(=O)(O)O)c1c(F)c(F)c(N=[N+]=[N-])c(F)c1F [analog 6, 8-(N-ethyl-4-azido-2,3,5,6-tetrafluoroaniline)-3,7-dimethyl-2,6-octadiene pyrophosphate]
[3]
  time-dependent increase in dansyl fluorescence / transfer to dansyl peptide, in words: no increase in fluorescence, and are not transferred

## C/C(=C\COP(=O)(O)OP(=O)(O)O)CCCOCc1ccccc1 [analog 12, 6-benzyloxy-3-methyl-2-hexene pyrophosphate]
[3]
  time-dependent increase in dansyl fluorescence / transfer to dansyl peptide, in words: transferred to dansyl peptide by FTase with slow kinetics; also recorded: Time-dependent increases in the fluorescence of the dansyl group
